Experimental findings from patent US9029389B2 (Institut Pasteur Korea, priority 2011, dated 2015) are described below.

The structures appear in SMILES notation.

Data set [1] concerns the target T1, Human 5-lipoxygenase (Homo sapiens, UniProt P09917).
T1 construct: purchased Cayman 60402; host or cells: insect cells
T1 sequence (P09917 1-674): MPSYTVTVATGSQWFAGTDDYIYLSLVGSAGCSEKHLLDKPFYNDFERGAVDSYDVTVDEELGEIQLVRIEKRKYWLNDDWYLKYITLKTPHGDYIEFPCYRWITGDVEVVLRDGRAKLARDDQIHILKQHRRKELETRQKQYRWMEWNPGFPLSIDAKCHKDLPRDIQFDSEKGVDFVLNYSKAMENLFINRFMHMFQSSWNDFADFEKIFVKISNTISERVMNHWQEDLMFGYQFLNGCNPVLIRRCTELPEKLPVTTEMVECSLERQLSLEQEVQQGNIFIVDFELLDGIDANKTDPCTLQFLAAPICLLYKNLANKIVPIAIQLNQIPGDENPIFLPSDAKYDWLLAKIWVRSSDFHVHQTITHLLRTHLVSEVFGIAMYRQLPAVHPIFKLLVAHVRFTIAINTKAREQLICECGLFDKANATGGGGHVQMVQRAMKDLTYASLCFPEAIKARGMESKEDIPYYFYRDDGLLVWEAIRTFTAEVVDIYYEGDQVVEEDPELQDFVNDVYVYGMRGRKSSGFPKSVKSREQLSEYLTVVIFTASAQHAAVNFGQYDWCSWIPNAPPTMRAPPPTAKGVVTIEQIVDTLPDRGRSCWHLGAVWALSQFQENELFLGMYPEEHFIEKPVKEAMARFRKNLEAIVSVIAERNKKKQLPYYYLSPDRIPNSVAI
The experiment in a line: Activity of compounds against 5-LO enzyme (LTB4 measurement and/or fluorescence method). It is filed as biochemical. Conditions: for inhibition at 10 µM: 5-LO, single concentration of 10 uM in duplicate; for IC50: 6 or 11 point dose response in duplicate. The gist of the method: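 Two read-outs: LTB4 measured by EIA and/or LC/MS/MS with LTB4-d4 standard after 15 min RT compound preincubation with insect-cell 5-LO and a 5 min 37 °C reaction on 3 uM arachidonic acid (0.1 mM ATP, pH 7.4). The room-temperature fluorescence format used 20 uM H2DCFDA, 100 uM ATP, 3 uM arachidonic acid, 5 min; IC50 from 6/11-point curves.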

For orientation: inhibition means how much of the control response was suppressed. Lower therefore signals little suppression. By IC50 is commonly meant the concentration that inhibits the measured activity by half. A low value points to higher potency. What is called melting point is the temperature of the solid-liquid transition.

`CCc1nc2cc(Cl)ccn2c1C(=O)NCc1ccc(N2CCC(Oc3ccc(F)cc3)CC2)cc1` [compound 70, 7-Chloro-2-ethyl-N-(4-(4-(4-fluorophenoxy)piperidin-1-yl)benzyl)imidazo[1,2-a]pyridine-3-carboxamide] gave a melting point of 138 to 139 °C. Besides, in data set [1], the inhibition at 10 µM is over 69% and the IC50 was in the range of 1 to 20 µM.

For the molecule `C=C1CCN(c2ccc(CNC(=O)c3c(CC)nc4cc(Cl)ccn34)cc2)CC1` [compound 218, 7-Chloro-2-ethyl-N-(4-(4-methylenepiperidin-1-yl)benzyl)imidazo[1,2-a]pyridine-3-carboxamide], the melting point was 168.3 °C. Further, the inhibition at 10 µM in data set [1] lay within 40 to 69%.

Regarding `CCc1nc2ccc(Cl)cn2c1C(=O)NCc1nc2cc(Cl)ccc2n1C` [compound 368, 6-chloro-N-((5-chloro-1-methyl-1H-benzo[d]imidazol-2-yl)methyl)-2-ethylimidazo[1,2-a]pyridine-3-carboxamide], the melting point was over 220 °C. Besides, in data set [1], the inhibition at 10 µM is under 40%.

With `CCc1nc2ccc(Cl)cn2c1C(=O)NCc1ccc(N2CCC(c3ccccc3)CC2)cc1` [compound 210, 6-Chloro-2-ethyl-N-(4-(4-phenylpiperidin-1-yl)benzyl)imidazo[1,2-a]pyridine-3-carboxamide], the melting point stood at 138.2 °C. In data set [1], this molecule came in with an inhibition at 10 µM of 40 to 69%.

As to `CCc1nc2ccc(Cl)cn2c1C(=O)NCc1ccc(N2CCC(C(F)(F)F)CC2)cc1` [compound 233, 6-Chloro-2-ethyl-N-(4-(4-(trifluoromethyl)piperidin-1-yl)benzyl)imidazo[1,2-a]pyridine-3-carboxamide], the melting point came out at 197.9 °C. In data set [1], this molecule gave an inhibition at 10 µM of 40 to 69%.

Take `CCc1nc2ccc(Cl)cn2c1C(=O)NCc1ccc(N2CCC(c3ccc(F)cc3)CC2)cc1` [compound 249, 6-Chloro-2-ethyl-N-(4-(4-(4-fluorophenyl)piperidin-1-yl)benzyl)imidazo[1,2-a]pyridine-3-carboxamide]: the melting point turned out to be 164 °C. The inhibition at 10 µM in data set [1] fell in the range of 40 to 69%.

Turning to `CCc1nc2c[n+]([O-])ccn2c1C(=O)NCc1ccc(OC(F)(F)F)cc1` [compound 142, 2-Ethyl-3-((4-(trifluoromethoxy)benzyl)carbamoyl)imidazo[1,2-a]pyrazine 7-oxide], the melting point is 215 to 216 °C. The same molecule yielded an inhibition at 10 µM in data set [1] of 40 to 69%.

Consider `CCc1nc2ccc(Cl)cn2c1C=O` [compound 145, 6-Chloro-2-ethylimidazo[1,2-a]pyridine-3-carbaldehyde], for which the melting point is 115 to 116 °C. In data set [1], this molecule came in with an inhibition at 10 µM of under 40%.

Molecule `Cc1nc2cccc(C)n2c1CNc1ccc(N2CCC(c3ccc(F)cc3)CC2)cc1` [compound 401, N-((2,5-dimethylimidazo[1,2-a]pyridin-3-yl)methyl)-4-(4-(4-fluorophenyl)piperidin-1-yl)aniline] had a melting point of 228.8 °C. Besides, in data set [1], the IC50 is under 1 µM.

For `CCc1nc2cc(Cl)ccn2c1C(=O)NCc1ccc(N2CC(C)OC(C)C2)cc1` (stereo not drawn) [compound 183, 7-Chloro-N-(4-(2,6-dimethylmorpholino)benzyl)-2-ethylimidazo[1,2-a]pyridine-3-carboxamide], the melting point is 165 to 166 °C. In data set [1], this molecule came in with an inhibition at 10 µM of under 40%.

With `CCc1nc2ccc(Cl)cn2c1C(=O)NCCc1ccc(OC)cc1` [compound 136, 6-Chloro-2-ethyl-N-(4-methoxyphenethyl)imidazo[1,2-a]pyridine-3-carboxamide], the melting point was in the range of 129 to 130 °C. Also, in data set [1], the inhibition at 10 µM was under 40%.

Molecule `CCc1nc2ccc(Cl)cn2c1C(=O)NCc1ccc(Oc2ccc(OC(F)(F)F)cc2)nc1` [compound 189, 6-Chloro-2-ethyl-N-((6-(4-(trifluoromethoxy)phenoxy)pyridin-3-yl)methyl)imidazo[1,2-a]pyridine-3-carboxamide] had a melting point of 154 to 155 °C. Besides, in data set [1], the inhibition at 10 µM is over 69% and the IC50 is under 1 µM.

`CCc1nc2cc(Cl)ccn2c1C(=O)NCc1ccc(N2CCN(Cc3ccc(OC(F)(F)F)cc3)CC2)cc1` [compound 157, 7-Chloro-2-ethyl-N-(4-(4-(4-(trifluoromethoxy)benzyl)piperazin-1-yl)benzyl)imidazo[1,2-a]pyridine-3-carboxamide] gave a melting point of 137.1 to 137.6 °C. In addition, in data set [1], the inhibition at 10 µM is over 69% and the IC50 lay in the range of 1 to 20 µM.

In turn, `CCc1nc2ccc(Br)cn2c1C(=O)NCc1ccc(N2CCOCC2)cc1` [compound 240, 6-Bromo-2-ethyl-N-(4-morpholinobenzyl)imidazo[1,2-a]pyridine-3-carboxamide] yielded a melting point of 228.2 °C. In addition, the inhibition at 10 µM in data set [1] was under 40%.

Regarding `CCc1nc2ccc(Cl)cn2c1C(=O)NCc1ccc(N2CCN(c3ccc(OC(F)(F)F)cc3)CC2)cc1` [compound 158, 6-Chloro-2-ethyl-N-(4-(4-(4-(trifluoromethoxy)phenyl)piperazin-1-yl)benzyl)imidazo[1,2-a]pyridine-3-carboxamide], the melting point was in the range of 206.5 to 207 °C. Further, in data set [1], the inhibition at 10 µM is 40 to 69%.

The molecule `CCc1nc2c(C(F)(F)F)cccn2c1C(=O)NCc1ccc(N2CCOCC2)cc1` [compound 274, 2-Ethyl-N-(4-morpholinobenzyl)-8-(trifluoromethyl)imidazo[1,2-a]pyridine-3-carboxamide] registered a melting point of 200.6 °C. This molecule returned an inhibition at 10 µM in data set [1] of under 40%.

In the case of `CCc1nc2ccc(Cl)cn2c1C(=O)NCc1ccc(N2CCOCC2)c(Cl)c1` [compound 302, 6-Chloro-N-(3-chloro-4-morpholinobenzyl)-2-ethylimidazo[1,2-a]pyridine-3-carboxamide], the melting point worked out at 175.5 °C. Also, the inhibition at 10 µM in data set [1] is under 40%.

`CCc1nc2ccccn2c1C(=O)NCc1ccc(N2CCC(c3ccc(OC(F)(F)F)cc3)CC2)cc1` [compound 266, 2-Ethyl-N-(4-(4-(4-(trifluoromethoxy)phenyl)piperidin-1-yl)benzyl)imidazo[1,2-a]pyridine-3-carboxamide] had a melting point of 146 °C. Further, in data set [1], the inhibition at 10 µM is over 69% and the IC50 is under 1 µM.

On to `CCc1nc2ccc(Cl)cn2c1C(=O)NCc1nc2ccc(Cl)cc2s1` [compound 371, 6-chloro-N-((6-chlorobenzo[d]thiazol-2-yl)methyl)-2-ethylimidazo[1,2-a]pyridine-3-carboxamide], for which the melting point is over 220 °C. The same molecule came in with an inhibition at 10 µM in data set [1] of under 40%.

In turn, `CCc1nc2ccc(Cl)cn2c1C(=O)NCC1CCN(Cc2ccc(OC(F)(F)F)cc2)CC1` [compound 138, 6-Chloro-2-ethyl-N-((1-(4-(trifluoromethoxy)benzyl)piperidin-4-yl)methyl)imidazo[1,2-a]pyridine-3-carboxamide] registered a melting point of 171 to 172 °C. For the same molecule, in data set [1], the inhibition at 10 µM fell in the range of 40 to 69%.

For the molecule `CCc1nc2cc(C)ccn2c1C(=O)NCc1ccc(N2CCN(c3ccc(F)cc3)CC2)cc1` [compound 220, 2-Ethyl-N-(4-(4-(4-fluorophenyl)piperazin-1-yl)benzyl)-7-methylimidazo[1,2-a]pyridine-3-carboxamide], the melting point worked out at 203.7 °C. For the same molecule, the inhibition at 10 µM in data set [1] fell in the range of 40 to 69%.

Turning to `CCc1nc2ccc(Cl)cn2c1C(=O)NCc1ccc(N2CCN(Cc3ccc(OC(F)(F)F)cc3)CC2)cc1` [compound 156, 6-Chloro-2-ethyl-N-(4-(4-(4-(trifluoromethoxy)benzyl)piperazin-1-yl)benzyl)imidazo[1,2-a]pyridine-3-carboxamide], the melting point lay in the range of 138.1 to 138.7 °C. In data set [1], this molecule registered an inhibition at 10 µM of under 40%.

`CCc1nc2ccc(Cl)cn2c1C(=O)NCC(C)C` [compound 239, 6-Chloro-2-ethyl-N-isobutylimidazo[1,2-a]pyridine-3-carboxamide] returned a melting point of 162.2 °C. In data set [1], this molecule gave an inhibition at 10 µM of under 40%.

As for `CCc1nc2ncccn2c1CNc1ccc(N2CCN(c3ccc(F)cc3)CC2)cc1` [compound 395, N-((2-Ethylimidazo[1,2-a]pyrimidin-3-yl)methyl)-4-(4-(4-fluorophenyl)piperazin-1-yl)aniline], the melting point amounted to 210.7 °C. This molecule also returned a half-maximal inhibitory concentration (IC50) in data set [1] of under 1 µM.

As for `CCc1nc2cc(Cl)ccn2c1C(=O)NCc1ccc(N2CCC(COC)CC2)cc1` [compound 248, 7-Chloro-2-ethyl-N-(4-(4-(methoxymethyl)piperidin-1-yl)benzyl)imidazo[1,2-a]pyridine-3-carboxamide], the melting point was found to be 172.5 °C. The same molecule had an inhibition at 10 µM in data set [1] of under 40%.
